From US20070128217A1 (priority 2003, published 2007)

How the values were obtained:
[1] = tested on: rabbit serum obtained by immunizing a rabbit with the SARS-CoV strain Frankfurt 1; assay type: binding; set-up: Binding of a rabbit serum to linear peptides / Binding of a rabbit serum to looped peptides / Rabbit serum linear peptides / Rabbit serum looped peptides / Binding of a rabbit serum to linear peptides of protein N of SARS-CoV Urbani (Rabbit serum linear peptides) / Binding of a rabbit serum to looped/cyclic peptides of protein N of SARS-CoV Urbani (Rabbit serum looped peptides): unit not given here
[2] = tested on: antibodies in sera from SARS patients (sera 1a, 1b, 2, 6, 37, 62, London, SARS-yellow, SARS-green); assay type: binding, human; set-up: Binding of serum 6 to linear peptides of protein X1 of SARS-CoV Urbani / Binding of serum 37 to linear peptides of protein X1 of SARS-CoV Urbani / Binding of serum 6 to looped/cyclic peptide (PEPSCAN-ELISA) / Binding of serum 37 to looped/cyclic peptide (PEPSCAN-ELISA) / Binding of serum 37 to looped/cyclic peptides of protein X1 of SARS-CoV Urbani / Binding of serum 6 to linear peptides of protein X2 / Binding of serum 37 to linear peptides of protein X2 / Binding of serum 37 to looped/cyclic peptides of protein X2 of SARS-CoV Urbani / Binding of serum 6 to linear peptides of protein M of SARS-CoV Urbani / Binding of serum 37 to linear peptides of protein M of SARS-CoV Urbani / Binding of serum 6 to looped/cyclic peptides of protein M of SARS-CoV Urbani / Binding of serum 37 to looped/cyclic peptides of protein M of SARS-CoV Urbani / Binding of serum 6 to linear peptides of protein X3 of SARS-CoV Urbani / Binding of serum 37 to linear peptides of protein X3 of SARS-CoV Urbani / Binding of serum 37 to looped/cyclic peptides of protein X3 of SARS-CoV Urbani / Binding of serum 6 to linear peptides of protein X4 of SARS-CoV Urbani / Binding of serum 37 to linear peptides of protein X4 of SARS-CoV Urbani / Binding of serum 37 to looped/cyclic peptides of protein X4 of SARS-CoV Urbani / Binding of serum 6 to linear peptides of protein X5 of SARS-CoV Urbani / Binding of serum 37 to linear peptides of protein X5 of SARS-CoV Urbani / Binding of serum 37 to looped/cyclic peptides of protein X5 of SARS-CoV Urbani / Binding of serum 6 to linear peptides of protein N of SARS-CoV Urbani / Binding of serum 37 to linear peptides of protein N of SARS-CoV Urbani / Binding of serum 6 to linear peptide (PEPSCAN-ELISA) / Binding of serum 1a to looped/cyclic peptides of protein N of SARS-CoV Urbani / Binding of serum 1b to looped/cyclic peptides of protein N of SARS-CoV Urbani / Binding of serum 2 to looped/cyclic peptides of protein N of SARS-CoV Urbani / Binding of serum 6 to looped/cyclic peptides of protein N of SARS-CoV Urbani / Binding of serum 37 to looped/cyclic peptides of protein N of SARS-CoV Urbani / Binding of serum 62 to looped/cyclic peptides of protein N of SARS-CoV Urbani / Binding of serum London to looped/cyclic peptides of protein N of SARS-CoV Urbani / Binding of serum SARS-green to looped/cyclic peptides of protein N of SARS-CoV Urbani: unit not given here
[3] = tested on: control sera (pooled serum of ten healthy LUMC hospital workers; commercial negative donor pooled serum from the Dutch bloodbank); assay type: binding, human; set-up: Binding of Control serum LUMC to linear peptides / Binding of Control serum Blood-bank to linear peptides / Binding of Control serum LUMC to looped peptides / Binding of Control Serum Blood-Bank to Looped peptides / Binding of Control serum LUMC to linear peptides of the protein M of SARS-CoV Urbani / Binding of Control serum Blood-bank to linear peptides of the protein M of SARS-CoV Urbani / Binding of Control serum LUMC to looped peptides of the protein M of SARS-CoV Urbani / Binding of Control Serum Blood-Bank to Looped peptides of the protein M of SARS-CoV Urbani: unit not given here

## LVAAGMEAQFLYLYA
[1]
  Binding of a rabbit serum to linear peptides: 0.1
  Binding of a rabbit serum to looped peptides: 0.6
[2]
  Binding of serum 1a to linear peptides of protein X1 of SARS-CoV Urbani: 0.8
  Binding of serum 1a to looped/cyclic peptide (PEPSCAN-ELISA): 0.5
  Binding of serum 1b to linear peptides of protein X1 of SARS-CoV Urbani: 0.7
  Binding of serum 1b to looped/cyclic peptide (PEPSCAN-ELISA): 0.4
  Binding of serum 2 to linear peptides of protein X1 of SARS-CoV Urbani: 0.6
  Binding of serum 2 to looped/cyclic peptide (PEPSCAN-ELISA): 0.5
  Binding of serum 6 to linear peptides of protein X1 of SARS-CoV Urbani: 0.4
  Binding of serum 6 to looped/cyclic peptide (PEPSCAN-ELISA): 0.3
  Binding of serum 37 to linear peptides of protein X1 of SARS-CoV Urbani: 0.6
  Binding of serum 37 to looped/cyclic peptide (PEPSCAN-ELISA): 0.5
  Binding of serum 62 to linear peptides of protein X1 of SARS-CoV Urbani: 0.5
  Binding of serum 62 to looped/cyclic peptide (PEPSCAN-ELISA): 0.5
  Binding of serum London to linear peptides of protein X1 of SARS-CoV Urbani: 0.2
  Binding of serum London to looped/cyclic peptide (PEPSCAN-ELISA): 0.2
  Binding of serum SARS-green to linear peptides of protein X1 of SARS-CoV Urbani: 0.2
  Binding of serum SARS-green to looped/cyclic peptide (PEPSCAN-ELISA): 0.3
  Binding of serum SARS-yellow to linear peptides of protein X1 of SARS-CoV Urbani: 0.3
  Binding of serum SARS-yellow to looped/cyclic peptide (PEPSCAN-ELISA): 0.6
[3]
  Binding of Control Serum Blood-Bank to Looped peptides: 0.5
  Binding of Control serum Blood-bank to linear peptides: 0.4
  Binding of Control serum LUMC to linear peptides: 1.1
  Binding of Control serum LUMC to looped peptides: 0.6

## LVDFQVTIAEILIII
[1]
  Rabbit serum linear peptides: 0.3
  Rabbit serum looped peptides: 0.3
[2]
  Binding of serum 1a to linear peptides of protein X3 of SARS-CoV Urbani: 0.8
  Binding of serum 1a to looped/cyclic peptides of protein X3 of SARS-CoV Urbani: 0.7
  Binding of serum 1b to linear peptides of protein X3 of SARS-CoV Urbani: 0.6
  Binding of serum 1b to looped/cyclic peptides of protein X3 of SARS-CoV Urbani: 0.4
  Binding of serum 2 to linear peptides of protein X3 of SARS-CoV Urbani: 0.7
  Binding of serum 2 to looped/cyclic peptides of protein X3 of SARS-CoV Urbani: 0.6
  Binding of serum 6 to linear peptides of protein X3 of SARS-CoV Urbani: 0.5
  Binding of serum 6 to looped/cyclic peptides of protein X3 of SARS-CoV Urbani: 0.3
  Binding of serum 37 to linear peptides of protein X3 of SARS-CoV Urbani: 0.6
  Binding of serum 37 to looped/cyclic peptides of protein X3 of SARS-CoV Urbani: 0.5
  Binding of serum 62 to linear peptides of protein X3 of SARS-CoV Urbani: 0.6
  Binding of serum 62 to looped/cyclic peptides of protein X3 of SARS-CoV Urbani: 0.6
  Binding of serum London to linear peptides of protein X3 of SARS-CoV Urbani: 0.6
  Binding of serum London to looped/cyclic peptides of protein X3 of SARS-CoV Urbani: 0.2
  Binding of serum SARS-green to linear peptides of protein X3 of SARS-CoV Urbani: 0.4
  Binding of serum SARS-green to looped/cyclic peptides of protein X3 of SARS-CoV Urbani: 0.2
  Binding of serum SARS-yellow to linear peptides of protein X3 of SARS-CoV Urbani: 0.7
  Binding of serum SARS-yellow to looped/cyclic peptides of protein X3 of SARS-CoV Urbani: 0.6
[3]
  Binding of Control Serum Blood-Bank to Looped peptides of the protein X3 of SARS-CoV Urbani: 0.6
  Binding of Control serum Blood-bank to linear peptides of the protein X3 of SARS-CoV Urbani: 0.8
  Binding of Control serum LUMC to linear peptides of the protein X3 of SARS-CoV Urbani: 0.9
  Binding of Control serum LUMC to looped peptides of the protein X3 of SARS-CoV Urbani: 0.7
